The text below walks through data of patent US20230167170A1, “COMPOSITIONS COMPRISING ANTI-VEGF AND NANOPARTICLES AND METHODS OF USING THE SAME FOR THE TREATMENT OF ABNORMAL OR EXCESSIVE ANGIOGENESIS” (Cellviva, LLC, priority 2020, published 2023).

The test system of this experiment is pyogenic granuloma lesion. The experiment is described as follows: Treatment of pyogenic granuloma after pterygiectomy and amniotic membrane graft with bevacizumab combination therapy (patient cases). In kind it is in vivo, human. As for the experimental part: A topical anesthetic (proparacaine 0.5% eye drops or Alcaine manufactured by Alcon Laboratories, Inc.) was applied to the eye following recent pterygiectomy and amniotic membrane graft surgery. The patients were examined to identify any abnormal grown on the eye. […] A syringe containing approximately 0.05 mL of bevacizumab ([…]) was injected into the eye and the plunger was drawn back to determine if blood was present in the syringe hub. […] Bevacizumab was then injected into the pyogenic granuloma lesion and/or in areas adjacent to the lesion where blood vessels were dilated and numerous. If bleeding occurred (e.g., in the form of subconjunctival or subcutaneous hematoma), tamponade with Q-tips was performed until bleeding stopped; then injection was resumed. The anti-inflammatory steroid drug and/or NSAID were administered either before or after the bevacizumab injection. The anti-inflammatory steroid drug and/or NSAID were administered by injection and/or via eye drops. If the anti-inflammatory steroid drug and/or NSAID was administered by injection, it was done following a similar process as described above for the bevacizumab injection. A syringe containing approximately 0.03 mL triamcinolone injection (40 mg/mL) was injected into the pyogenic granuloma lesion and the plunger was drawn back to determine if blood was present in the syringe hub. […] The anti-inflammatory steroid drug or NSAID was injected into the pyogenic granuloma lesion and/or in areas adjacent to the lesion where blood vessels were dilated and numerous. If bleeding occurred (e.g., in the form of subconjunctival or subcutaneous hematoma), tamponade with Q-tips was performed until bleeding stopped; then injection was resumed. If the anti-inflammatory steroid drug or NSAID was delivered by eyedrops, the steroid eye drops were given for approximately 6 weeks 1 to 4 times a day (every 6 hours) or once every hour (24 drops/day). NSAID eye drops were given 4 times a day every 6 hours for 3 to 6 months. Patients were followed up with to monitor for appearance of new pyogenic granuloma. The presence of new pyogenic granuloma was an indication for further treatment (e.g. with injection and/or eye drops). In some cases, during the first surgery to remove pterygium, the pterygium was only partially removed to prevent necrosis). Thus, in some patients, additional surgeries were subsequently performed to remove remaining sections of the pterygium, resulting in additional pyogenic granuloma. Two patients (Patients 1 and 2) underwent surgery to remove primary pterygium (pterygiectomy) from the cornea of one or both eyes followed by amniotic membrane graft surgery and were treated as described below.

The mark [1] stands for this setting: Patient 2, left eye, 1-month follow-up visit, triamcinolone day 98, bevacizumab day 100.

bevacizumab: the “resolution of pyogenic granuloma” value was “completely resolved” (Patient 1, right eye, 30 days after day 104, triamcinolone day 90, bevacizumab day 97); “completely resolved” under setting [1]; “completely resolved” (Patient 3, right eye, day 86, triamcinolone 0.03 mL (40 mg/mL) day 60, bevacizumab 0.05 mL (1.25 mg/mL) day 68, FIG. 4). Also, the pyogenic granuloma size result is, setting by setting: (Patient 1, right eye, day 104 after surgery, triamcinolone 0.03 mL (40 mg/mL) day 90, then bevacizumab 0.05 mL (1.25 mg/mL) day 97, both into the lesion) “considerably smaller in circumference”; (Patient 2, left eye, within two weeks of bevacizumab injection, triamcinolone 0.03 mL (40 mg/mL) day 98, bevacizumab 0.05 mL (1.25 mg/mL) day 100) “significantly smaller”. Also, the “hyperemia of pyogenic granuloma” value (Patient 1, right eye, day 104 after surgery, triamcinolone day 90, bevacizumab day 97) is recorded as “no evidence of hyperemia”. For the same substance, the “pyogenic granuloma lesions, stated conclusion” value by setting is: (Patient 1, combination therapy of bevacizumab and an anti-inflammatory steroid (injected)) “inhibited”; (Patient 2, combination therapy of bevacizumab and an anti-inflammatory steroid (injected or topical)) “inhibited”. Also, the “recurrence of pyogenic granuloma” value under setting [1] was “no evidence of recurrence”. The “erythema of pyogenic granuloma” value (Patient 2, left eye, within two weeks of bevacizumab injection, triamcinolone day 98, bevacizumab day 100) is recorded as “less erythematous”. Also, the “pyogenic granuloma, stated conclusion” value (Patient 3, combination therapy of bevacizumab, an anti-inflammatory steroid (injected or topical) and a topical NSAID) is “eliminated”. Moreover, the “combination therapy compared with bevacizumab alone” value (Patient 3, combination therapy of bevacizumab, anti-inflammatory steroid and topical NSAID) was “superior to treatment with bevacizumab alone”. The “pyogenic granuloma lesion after steroid and anti-VEGF injection” value (Patient's eye 18 days after injection of both Kenalog and bevacizumab, FIG. 4) was “significant reduction in the pyogenic granuloma lesion”.
